Experimental findings from ChEMBL document CHEMBL1138248, “Synthesis and in vitro antiprotozoal activity of bisbenzofuran cations” (J Med Chem, 2007) are described below.

The subject of one test is L6. Briefly: Cytotoxicity against rat L6 cells.
In test [1] the test system is Trypanosoma brucei rhodesiense. Briefly: Antitrypanosomal activity against Trypanosoma brucei rhodesiense STIB900. It is filed as functional, organism-based.
The next test relates to Leishmania donovani. Briefly: […] activity against Leishmania donovani (MHOM/SD/62/1S-CL2D) axenic amastigotes. It is filed as functional, organism-based.
The subject of the next test is Plasmodium falciparum. Briefly: microbe, parasite or virus in culture. As to conditions: K1.

Description for Plasmodium falciparum: Antimalarial activity against chloroquine-resistant Plasmodium falciparum K1

For the compound `N=C(N)c1ccc2oc(CCc3cc4cc(C(=N)N)ccc4o3)cc2c1`, the IC50 (commonly the midpoint of a concentration-inhibition curve) in the test on L6 is 21500 nM; in test [1], 8 nM; in the test on Leishmania donovani it was 1060 nM; in the test on Plasmodium falciparum, 3 nM.

Take `C[C@@H]1CC[C@H]2[C@@H](C)C(=O)O[C@@H]3O[C@@]4(C)CC[C@@H]1[C@]32OO4` [ARTEMISININ]: in the test with Plasmodium falciparum, the IC50 amounted to 6 nM.

As for `CCN(CC)CCCC(C)Nc1ccnc2cc(Cl)ccc12` (stereo not drawn) [CHLOROQUINE], in the test on L6, half-maximal inhibition (IC50) was put at 117000 nM.

`N=C(N)c1ccc(OCCCCCOc2ccc(C(=N)N)cc2)cc1` [PENTAMIDINE] had an IC50 in the test on Leishmania donovani of 1830 nM. This lies in the single-digit micromolar range.

Take `COc1cc([C@@H]2c3cc4c(cc3[C@H](O)[C@H]3COC(=O)[C@H]23)OCO4)cc(OC)c1OC` [PODOFILOX]: the IC50 in the test on L6 amounted to 10 nM.
